Data as given in ChEMBL document CHEMBL3227974, “Multivariate analysis and quantitative structure-activity relationships. Inhibition of dihydrofolate reductase and thymidylate synthetase by quinazolines” (J Med Chem, 1979).

target: Thymidylate synthase (Mus musculus) (UniProt P07607); assay: Inhibition of thymidylate synthetase in mouse L1210S cells; format: cell-based; settings: not given
Sequence (P07607 whole entry, looked up): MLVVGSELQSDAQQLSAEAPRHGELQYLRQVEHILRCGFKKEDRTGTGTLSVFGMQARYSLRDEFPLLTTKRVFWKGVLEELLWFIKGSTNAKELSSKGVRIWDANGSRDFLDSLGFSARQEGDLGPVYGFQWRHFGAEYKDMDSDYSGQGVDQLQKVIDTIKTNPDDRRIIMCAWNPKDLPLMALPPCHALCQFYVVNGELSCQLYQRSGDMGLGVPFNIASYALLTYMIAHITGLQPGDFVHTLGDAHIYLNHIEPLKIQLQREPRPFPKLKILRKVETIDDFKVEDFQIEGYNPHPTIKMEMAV

Compound | log(1/I50)
Nc1nc(S)c2cc(CNc3ccc(C(=O)O)cc3)ccc2n1 | 4
CCOC(=O)c1ccc(NCc2ccc3nc(N)nc(N)c3c2C)cc1 | 4
Nc1nc(O)c2cc(CNc3ccc(C(=O)O)cc3)ccc2n1 | 4
Cc1c(NCc2ccc(C(=O)NC(CCC(=O)O)C(=O)O)cc2)ccc2nc(N)nc(O)c12 (stereo not given) | 5.12
Nc1nc(N)c2cc(NCc3ccc(C(=O)NC(CCC(=O)O)C(=O)O)cc3)ccc2n1 (stereo not given) | 6.6
CCOC(=O)CCC(NC(=O)c1ccc(CNc2ccc3nc(N)nc(O)c3c2C)cc1)C(=O)OCC (stereo not given) | 5.12
Nc1nc(O)c2cc(CCc3ccc(C(=O)NC(CCC(=O)O)C(=O)O)cc3)ccc2n1 (stereo not given) | 5.3
CCOC(=O)c1ccc(NCc2ccc3nc(N)nc(N)c3c2)cc1 | 4
CCOC(=O)CCC(NC(=O)c1ccc(NCc2ccc3nc(N)nc(N)c3c2)cc1)C(=O)OCC (stereo not given) | 4
CCOC(=O)c1ccc(NCc2ccc3nc(N)nc(O)c3c2)cc1 | 4
CCOC(=O)c1ccc(CNc2ccc3nc(N)nc(O)c3c2)cc1 | 4
CCOC(=O)CCC(NC(=O)c1ccc(SCc2ccc3nc(N)nc(O)c3c2)cc1)C(=O)OCC (stereo not given) | 7
CN(Cc1ccc2nc(N)nc(O)c2c1)c1ccc(C(=O)O)cc1 | 4.7
CCOC(=O)c1ccc(CNc2ccc3nc(N)nc(O)c3c2C)cc1 | 4
Nc1nc(N)c2cc(CNc3ccc(C(=O)NC(CCC(=O)O)C(=O)O)cc3)ccc2n1 (stereo not given) | 5
CCOC(=O)CCC(NC(=O)c1ccc(CNc2ccc3nc(N)nc(N)c3c2)cc1)C(=O)OCC (stereo not given) | 6

Compound | log(1/I50)
CN(Cc1ccc2nc(N)nc(O)c2c1)c1ccc(C(=O)NC(CCC(=O)O)C(=O)O)cc1 (stereo not given) | 7.3
Nc1nc(N)c2cc(CN(C=O)c3ccc(C(=O)O)cc3)ccc2n1 | 4
Nc1nc(=O)c2cc(CSc3ccc(C(=O)NC(CCC(=O)O)C(=O)O)cc3)ccc2[nH]1 (stereo not given) | 6
Cc1c(CNc2ccc(C(=O)NC(CC(=O)O)C(=O)O)cc2)ccc2nc(N)nc(N)c12 (stereo not given) | 6
Cc1c(CNc2ccc(C(=O)NC(CCC(=O)O)C(=O)O)cc2)ccc2nc(N)nc(O)c12 (stereo not given) | 7
CN(Cc1ccc2nc(N)nc(S)c2c1)c1ccc(C(=O)O)cc1 | 5.12
CCOC(=O)CCC(NC(=O)c1ccc(NCc2ccc3nc(N)nc(N)c3c2C)cc1)C(=O)OCC (stereo not given) | 5.12
Nc1nc(O)c2cc(NCc3ccc(C(=O)O)cc3)ccc2n1 | 4
CCOC(=O)CCC(NC(=O)c1ccc(CNc2ccc3nc(N)nc(O)c3c2)cc1)C(=O)OCC (stereo not given) | 6
Nc1nc(=O)c2cc(NCc3ccc(C(=O)NC(CCC(=O)O)C(=O)O)cc3)ccc2[nH]1 (stereo not given) | 6.3
Nc1nc(O)c2cc(CN(C=O)c3ccc(C(=O)NC(CCC(=O)O)C(=O)O)cc3)ccc2n1 (stereo not given) | 7
CCOC(=O)CCC(NC(=O)c1ccc(N(C)Cc2ccc3nc(N)nc(O)c3c2)cc1)C(=O)OCC (stereo not given) | 5.12
CCOC(=O)CCC(NC(=O)c1ccc(NCc2ccc3nc(N)nc(O)c3c2)cc1)C(=O)OCC (stereo not given) | 6.6
CCOC(=O)c1ccc(CNc2ccc3nc(N)nc(N)c3c2C)cc1 | 4
Nc1nc(O)c2cc(COc3ccc(C(=O)NC(CCC(=O)O)C(=O)O)cc3)ccc2n1 (stereo not given) | 5
Cc1c(NCc2ccc(C(=O)O)cc2)ccc2nc(N)nc(O)c12 | 4.05

target: T1, Thymidylate synthase (Lactobacillus casei) (UniProt P00469); assay: Inhibition of thymidylate synthetase in Lactobacillus casei; settings: Lacticaseibacillus casei
T1 sequence (whole entry): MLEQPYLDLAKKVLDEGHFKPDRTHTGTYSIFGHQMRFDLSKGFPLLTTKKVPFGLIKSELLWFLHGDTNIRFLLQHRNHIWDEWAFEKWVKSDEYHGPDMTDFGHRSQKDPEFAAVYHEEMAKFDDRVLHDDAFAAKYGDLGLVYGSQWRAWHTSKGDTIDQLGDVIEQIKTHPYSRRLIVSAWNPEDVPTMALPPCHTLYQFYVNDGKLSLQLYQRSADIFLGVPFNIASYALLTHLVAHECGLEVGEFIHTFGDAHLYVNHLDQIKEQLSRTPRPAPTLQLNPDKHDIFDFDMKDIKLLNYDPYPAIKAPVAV

Compound | log(1/I50)
Nc1nc(S)c2cc(CNc3ccc(C(=O)O)cc3)ccc2n1 | 4
CCOC(=O)c1ccc(NCc2ccc3nc(N)nc(N)c3c2C)cc1 | 4
Nc1nc(O)c2cc(CNc3ccc(C(=O)O)cc3)ccc2n1 | 4
Cc1c(NCc2ccc(C(=O)NC(CCC(=O)O)C(=O)O)cc2)ccc2nc(N)nc(O)c12 (stereo not given) | 4.3
Nc1nc(N)c2cc(NCc3ccc(C(=O)NC(CCC(=O)O)C(=O)O)cc3)ccc2n1 (stereo not given) | 5.3
CCOC(=O)CCC(NC(=O)c1ccc(CNc2ccc3nc(N)nc(O)c3c2C)cc1)C(=O)OCC (stereo not given) | 4
Nc1nc(O)c2cc(CCc3ccc(C(=O)NC(CCC(=O)O)C(=O)O)cc3)ccc2n1 (stereo not given) | 5.12
CCOC(=O)c1ccc(NCc2ccc3nc(N)nc(N)c3c2)cc1 | 4
CCOC(=O)CCC(NC(=O)c1ccc(NCc2ccc3nc(N)nc(N)c3c2)cc1)C(=O)OCC (stereo not given) | 4
CCOC(=O)c1ccc(NCc2ccc3nc(N)nc(O)c3c2)cc1 | 4
CCOC(=O)c1ccc(CNc2ccc3nc(N)nc(O)c3c2)cc1 | 4.3
CCOC(=O)CCC(NC(=O)c1ccc(SCc2ccc3nc(N)nc(O)c3c2)cc1)C(=O)OCC (stereo not given) | 5.1
CN(Cc1ccc2nc(N)nc(O)c2c1)c1ccc(C(=O)O)cc1 | 4.12
CCOC(=O)c1ccc(CNc2ccc3nc(N)nc(O)c3c2C)cc1 | 4.05
Nc1nc(N)c2cc(CNc3ccc(C(=O)NC(CCC(=O)O)C(=O)O)cc3)ccc2n1 (stereo not given) | 4
CCOC(=O)CCC(NC(=O)c1ccc(CNc2ccc3nc(N)nc(N)c3c2)cc1)C(=O)OCC (stereo not given) | 5

Compound | log(1/I50)
CN(Cc1ccc2nc(N)nc(O)c2c1)c1ccc(C(=O)NC(CCC(=O)O)C(=O)O)cc1 (stereo not given) | 6.4
Nc1nc(N)c2cc(CN(C=O)c3ccc(C(=O)O)cc3)ccc2n1 | 4.12
Nc1nc(=O)c2cc(CSc3ccc(C(=O)NC(CCC(=O)O)C(=O)O)cc3)ccc2[nH]1 (stereo not given) | 5.6
Cc1c(CNc2ccc(C(=O)NC(CC(=O)O)C(=O)O)cc2)ccc2nc(N)nc(N)c12 (stereo not given) | 5
Cc1c(CNc2ccc(C(=O)NC(CCC(=O)O)C(=O)O)cc2)ccc2nc(N)nc(O)c12 (stereo not given) | 4.9
CN(Cc1ccc2nc(N)nc(S)c2c1)c1ccc(C(=O)O)cc1 | 4.12
CCOC(=O)CCC(NC(=O)c1ccc(NCc2ccc3nc(N)nc(N)c3c2C)cc1)C(=O)OCC (stereo not given) | 4.3
Nc1nc(O)c2cc(NCc3ccc(C(=O)O)cc3)ccc2n1 | 4
CCOC(=O)CCC(NC(=O)c1ccc(CNc2ccc3nc(N)nc(O)c3c2)cc1)C(=O)OCC (stereo not given) | 4.46
Nc1nc(=O)c2cc(NCc3ccc(C(=O)NC(CCC(=O)O)C(=O)O)cc3)ccc2[nH]1 (stereo not given) | 5
Nc1nc(O)c2cc(CN(C=O)c3ccc(C(=O)NC(CCC(=O)O)C(=O)O)cc3)ccc2n1 (stereo not given) | 5.52
CCOC(=O)CCC(NC(=O)c1ccc(N(C)Cc2ccc3nc(N)nc(O)c3c2)cc1)C(=O)OCC (stereo not given) | 4.12
CCOC(=O)CCC(NC(=O)c1ccc(NCc2ccc3nc(N)nc(O)c3c2)cc1)C(=O)OCC (stereo not given) | 4.15
CCOC(=O)c1ccc(CNc2ccc3nc(N)nc(N)c3c2C)cc1 | 5
Nc1nc(O)c2cc(COc3ccc(C(=O)NC(CCC(=O)O)C(=O)O)cc3)ccc2n1 (stereo not given) | 4
Cc1c(NCc2ccc(C(=O)O)cc2)ccc2nc(N)nc(O)c12 | 4.05

target: T2, Dihydrofolate reductase (Mus musculus) (UniProt P00375); assay: Inhibition of dihydrofolate reductase in mouse L1210R cells; format: cell-based; settings: not given
T2 sequence (whole entry): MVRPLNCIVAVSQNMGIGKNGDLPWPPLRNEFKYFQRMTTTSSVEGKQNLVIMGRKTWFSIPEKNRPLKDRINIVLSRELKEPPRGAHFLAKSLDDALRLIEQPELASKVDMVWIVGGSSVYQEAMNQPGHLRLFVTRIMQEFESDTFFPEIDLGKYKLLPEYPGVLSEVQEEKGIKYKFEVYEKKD

Compound | log(1/I50)
Cc1c(CNc2ccc(C(=O)NC(CC(=O)O)C(=O)O)cc2)ccc2nc(N)nc(N)c12 (stereo not given) | 8.87
CCOC(=O)c1ccc(CNc2ccc3nc(N)nc(N)c3c2C)cc1 | 8

target: T3, Dihydrofolate reductase (Homo sapiens) (UniProt P00374); settings: not given
T3 sequence (whole entry): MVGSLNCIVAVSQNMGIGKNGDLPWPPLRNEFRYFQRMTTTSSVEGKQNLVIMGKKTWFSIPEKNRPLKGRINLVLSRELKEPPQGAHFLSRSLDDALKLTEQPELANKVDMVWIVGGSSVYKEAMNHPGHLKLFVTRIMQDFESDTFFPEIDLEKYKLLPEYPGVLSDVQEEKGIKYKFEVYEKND

Compound | log(1/I50)
Cc1c(NCc2ccc(C(=O)NC(CCC(=O)O)C(=O)O)cc2)ccc2nc(N)nc(O)c12 (stereo not given) | 6.12
Nc1nc(N)c2cc(NCc3ccc(C(=O)NC(CCC(=O)O)C(=O)O)cc3)ccc2n1 (stereo not given) | 8
CCOC(=O)CCC(NC(=O)c1ccc(CNc2ccc3nc(N)nc(O)c3c2C)cc1)C(=O)OCC (stereo not given) | 5.1
Nc1nc(O)c2cc(CCc3ccc(C(=O)NC(CCC(=O)O)C(=O)O)cc3)ccc2n1 (stereo not given) | 6.31
CCOC(=O)c1ccc(NCc2ccc3nc(N)nc(O)c3c2)cc1 | 4.66
CCOC(=O)c1ccc(CNc2ccc3nc(N)nc(O)c3c2)cc1 | 5.49
CCOC(=O)CCC(NC(=O)c1ccc(SCc2ccc3nc(N)nc(O)c3c2)cc1)C(=O)OCC (stereo not given) | 5.05
CCOC(=O)CCC(NC(=O)c1ccc(CNc2ccc3nc(N)nc(N)c3c2)cc1)C(=O)OCC (stereo not given) | 7.66
CN(Cc1ccc2nc(N)nc(O)c2c1)c1ccc(C(=O)NC(CCC(=O)O)C(=O)O)cc1 (stereo not given) | 6.22
Nc1nc(=O)c2cc(CSc3ccc(C(=O)NC(CCC(=O)O)C(=O)O)cc3)ccc2[nH]1 (stereo not given) | 4.9
Cc1c(CNc2ccc(C(=O)NC(CC(=O)O)C(=O)O)cc2)ccc2nc(N)nc(N)c12 (stereo not given) | 8.9
CCOC(=O)CCC(NC(=O)c1ccc(NCc2ccc3nc(N)nc(N)c3c2C)cc1)C(=O)OCC (stereo not given) | 8.49
CCOC(=O)CCC(NC(=O)c1ccc(CNc2ccc3nc(N)nc(O)c3c2)cc1)C(=O)OCC (stereo not given) | 5.65
Nc1nc(=O)c2cc(NCc3ccc(C(=O)NC(CCC(=O)O)C(=O)O)cc3)ccc2[nH]1 (stereo not given) | 5.78
